Like-named read-outs stand apart in the source and are kept apart here.
Key:
[1] = ABTS radical scavenging assay; type: biochemical; conditions: for IC50: 30-min incubation; for ABTS Assay TEAC50: Equivalent antioxidant capacity at Trolox 50 mM; for ABTS Assay TEAC100: Equivalent antioxidant capacity at Trolox 100 mM
Procedure: The mixture was stored in the dark at room temperature for 16 h. […] All the compounds tested were dissolved in EtOH. […] The degree of decolorization was calculated as the percentage reduction of absorbance. […] Trolox was used as a reference antioxidant.

[2] = Ferric reducing antioxidant power (FRAP) assay; type: biochemical; set-up: FRAP Assay Trolox Equivalents: unit not given here; conditions: for FRAP Assay Antioxidant Capacity (%) at 100 uM: compound at 100 uM; for FRAP Assay Antioxidant Capacity (%) at 200 uM: compound at 200 uM
Procedure: FRAP reagent was prepared by mixing 10 mL of 300 mM acetate buffer with 1 mL of 10 mM 2,4,6-tripyridyl-S-triazine (TPTZ) in HCl 40 mM and 1mL of FeCl3·6H2O 20 mM. […] Trolox was used as assay control.

[3] = Kinetic solubility by UV spectrometry; type: physicochemical; conditions: PBS 50 mM, aqueous buffer, kinetic from dmso stock
Procedure: A modified protocol was used from that described by Hoelke et al. for the determination of the kinetic solubility from DMSO compound solutions. A compound calibration curve (compound concentration vs UV absorption) was prepared for each compound with concentrations of 10, 20, 50, 100, and 200 µM. Each compound dilution was carried out by pipetting defined volumes of a 20 mM stock compound solution in DMSO into vials and adding PBS 50 mM to reach a final volume of 1 mL/well. The final amount of DMSO per well was 2%. For the lower compound concentrations, an additional volume of DMSO was added to each well to reach 2% DMSO. Then, 200 µL of each dilution was transferred to a new 96-well culture plate for the measurement of the UV-spectra. One well in each row was left without a compound as a blank, and its UV absorbance was used as an offset correction. The experiments were performed in duplicate.
In parallel, compound saturation solutions were reached and filtered from 20 mM compound stock in DMSO: 10 µL of a 20 mM stock solution was dispensed into 190 µL of PBS 10 mM. The solutions were mixed, shaken on a microplate shaker for two hours, and then 160 µL of each solution was filtered and transferred to a new well plate for UV absorption measurement.
Measurement of the UV-spectra was performed using a Varioskan microplate reader, and spectra were taken in the range of 270–600 nm. Spectral bandwidth was set to 5 nm, and the data pint interval was 10 nm. The experiments were carried out in triplicate.

SH-SY5Y cells [4] = experiment: Cytotoxicity, MTT assay, SH-SY5Y; type: cell-based; conditions: Homo sapiens, read-out: SH-SY5Y IC50
Procedure: (§1) All compounds tested were dissolved and eventually further diluted in dimethylsulfoxide (DMSO). After overnight incubation, the cells were treated with different compound concentrations (5, 10, 20, 50, 100, 150, 200 µM) in a final volume of 200 µL with four replicates each. […] Cell proliferation or viability was measured using the 3-(4,5-dimethylthiazol-2-yl)-2,5-diphenyl tetrazolium bromide (MTT) assay. The MTT assay was optimized taking into account the number of cells plated per well, to work in the linear part of the cell density vs. MTT absorbance calibration curve, which allows achieving a maximum absorbance in the range of 0.8–1.0 in each well at the end of the experiment. In addition to that, the number of cells seeded for each experiment was optimized in agreement with the time scale of the experiment.
(§2) After cell treatment, 20 µL of MTT (5 mg/mL) was added to each well, and the plate was incubated at 37 °C in the dark for 2 h. Supernatants were removed, and the formazan crystals were solubilized in DMSO (200 µL/well), under 10 min shaking at room temperature. The reduction of MTT was quantified by absorbance at 570 nm in a Varioskan microplate reader (Thermo Fisher Scientific, Vantaa, Finland). Effects of the test compounds on cell viability were calculated using cells treated with a vehicle as a control. For IC50 and LD50 calculations, the data were subjected to linear regression analysis, and the regression lines were plotted for the best fit. The IC50 (inhibition of cell viability) concentrations were calculated using the respective dose–response curves.

HepG2 cells = experiment: Cytotoxicity, MTT assay, HepG2; type: cell-based; conditions: Homo sapiens
Procedure: as §1, §2

[5] = Chemical reactivity with H2O2; type: physicochemical; conditions: H2O2 500 µM, 37 °C, 4 h, DMEM:F12 without cells
Procedure: In our case, before running the protection experiments under oxidative stress conditions, we carried out experiments to assess the potential reactivity of compounds 9, 11, 13, and 18 at four different concentrations (5, 10, 20, and 40 µM) with H2O2 500 µM at 37 °C for 4 h in DMEM:F12 (without phenol red, FBS, and cells). Curcumin was used as a control compound.

SH-SY5Y cells [6] = experiment: cells; type: cell-based, human; conditions: for EC50: MTT
SH-SY5Y cells [7] = experiment: Resazurin cell viability assay under H2O2; type: cell-based, human; conditions: 24-h incubation, resazurin
SH-SY5Y cells [8] = experiment: LDH release under H2O2; type: cell-based, human; conditions: H2O2 250 µM 24 h; compounds 24 h before; Figure 9
SH-SY5Y cells [9] = experiment: Neuroprotection against H2O2-induced oxidative stress, MTT; conditions: H2O2 250 µM 24 h; compounds 5-50 µM 24 h before; Figure 8
[10] = HepG2, MTT, cytotoxicity, read-out: HepG2 IC50

## O=C1CC(c2ccccc2)=Nc2cc(F)ccc2N1 [Compound 13, 7-Fluoro-4-phenyl-H-1,5-benzodiazepin-2(3H)-one]
[1]
  IC50: 325 ± 55 µM
  ABTS Assay TEAC50: 0.36
  ABTS Assay TEAC100: 0.19
[2]
  FRAP Assay Trolox Equivalents: 0.79
  FRAP Assay Antioxidant Capacity (%) at 100 uM: 40.7%
  FRAP Assay Antioxidant Capacity (%) at 200 uM: 61.6%
[3]
  solubility: < 20 µM
SH-SY5Y cells [4]; MTT, cytotoxicity
  IC50: > 250 µM
HepG2 cells; [10]
  IC50: > 250 µM
[5]
  Reaction with H2O2: did not show any significant reaction
other
  melting point: 205.7 °C

## C[n+]1ccc(-c2ccccc2)cc1 [MPP^+, 1-Methyl-4-phenylpyridinium]
SH-SY5Y cells [6]; MPP+ 48 h, read-out: concentration that resulted in 50% cell viability
  EC50: 700 µM

## OO [Compound H2O2, hydrogen peroxide, reference compound]
SH-SY5Y cells [7]
  H2O2 lethal dose (LD50 / EC50), resazurin method: 268 µM
SH-SY5Y cells [6]
  H2O2 lethal dose (LD50 / EC50): 250 µM

## NCCc1cc(O)c(O)cc1O [Compound 6-OHD, 6-hydroxydopamine]
SH-SY5Y cells [6]; Homo sapiens, SH-SY5Y, 6-OHD 48 h, read-out: concentration at which the cell viability was reduced by 50%
  EC50: 250 µM

## O=C1CC(c2ccccc2F)=Nc2c(F)c(F)c(F)c(F)c2N1 [Compound 5, 6,7,8,9-tetrafluoro-4-(2-fluorophenyl)-1H-1,5-benzodiazepin-2(3H)-one]
[1]
  IC50: 658 ± 96 µM
  ABTS Assay TEAC50: 0.32
  ABTS Assay TEAC100: 0.15
[2]
  FRAP Assay Trolox Equivalents: 0.03
  FRAP Assay Antioxidant Capacity (%) at 100 uM: 1.4%
  FRAP Assay Antioxidant Capacity (%) at 200 uM: 5.5%
[3]
  solubility: < 20 µM
SH-SY5Y cells [4]; MTT, cytotoxicity
  IC50: > 250 µM
HepG2 cells; [10]
  IC50: > 250 µM
other
  melting point: 248.1 °C

## CN1C(=O)CC(c2ccccc2Cl)=Nc2c(F)c(F)c(F)c(F)c21 [Compound 8, 6,7,8,9-tetrafluoro-4-(2-chlorophenyl)-1-methyl-1H-1,5-benzodiazepin-2(3H)-one]
[1]
  IC50: > 1000 µM
[2]
  FRAP Assay Trolox Equivalents: 0.01
  FRAP Assay Antioxidant Capacity (%) at 100 uM: 0.6%
  FRAP Assay Antioxidant Capacity (%) at 200 uM: 0.2%
[3]
  solubility: < 100 µM
SH-SY5Y cells [4]
  IC50: 150 ± 17 µM
HepG2 cells; HepG2, read-out: HepG2 IC50
  IC50: 207 ± 27 µM
other
  melting point: 128.7 °C

## O=C1CC(c2ccccc2)=Nc2cc(F)c(F)cc2N1 [Compound 9, 7,8-Difluoro-4-phenyl-1H-1,5-benzodiazepin-2(3H)-one]
[1]
  IC50: 432 ± 68 µM
  ABTS Assay TEAC50: 0.36
  ABTS Assay TEAC100: 0.18
[2]
  FRAP Assay Trolox Equivalents: 0.43
  FRAP Assay Antioxidant Capacity (%) at 100 uM: 21.9%
  FRAP Assay Antioxidant Capacity (%) at 200 uM: 37.1%
[3]
  solubility: < 50 µM
SH-SY5Y cells [4]; MTT, cytotoxicity
  IC50: > 250 µM
HepG2 cells; [10]
  IC50: > 250 µM
SH-SY5Y cells [8]
  LDH leakage: reduced LDH leakage to some degree
[5]
  Reaction with H2O2: did not show any significant reaction

## CN1C(=O)CC(c2ccccc2)=Nc2cc(F)ccc21 [Compound 14, 7-Fluoro-1-methyl-4-phenyl-1H-1,5-benzodiazepin-2(3H)-one]
[1]
  IC50: > 1000 µM
[2]
  FRAP Assay Trolox Equivalents: 0.01
  FRAP Assay Antioxidant Capacity (%) at 100 uM: 0.3%
  FRAP Assay Antioxidant Capacity (%) at 200 uM: 0.6%
[3]
  solubility: > 200 µM
SH-SY5Y cells [4]
  IC50: 220 ± 27.9 µM
HepG2 cells; HepG2, read-out: HepG2 IC50
  IC50: 233 ± 18.7 µM
other
  melting point: 107.7 °C

## CN1C(=O)CC(c2ccccc2F)=Nc2c(F)c(F)c(F)c(F)c21 [Compound 6, 6,7,8,9-tetrafluoro-4-(2-fluorophenyl)-1-methyl-1H-1,5-benzodiazepin-2(3H)-one]
[1]
  IC50: > 1000 µM
[2]
  FRAP Assay Trolox Equivalents: 0.02
  FRAP Assay Antioxidant Capacity (%) at 100 uM: 1.1%
  FRAP Assay Antioxidant Capacity (%) at 200 uM: 1.6%
[3]
  solubility: < 200 µM
SH-SY5Y cells [4]
  IC50: > 250 µM
HepG2 cells; HepG2, read-out: HepG2 IC50
  IC50: > 250 µM
other
  melting point: 142.6 °C

## O=C1CC(c2ccccc2)=Nc2ccc(F)cc2N1 [Compound 11, 8-Fluoro-4-phenyl-1H-1,5-benzodiazepin-2(3H)-one]
[1]
  IC50: 306 ± 34.6 µM
  ABTS Assay TEAC50: 0.35
  ABTS Assay TEAC100: 0.17
[2]
  FRAP Assay Trolox Equivalents: 0.56
  FRAP Assay Antioxidant Capacity (%) at 100 uM: 28.9%
  FRAP Assay Antioxidant Capacity (%) at 200 uM: 49.8%
[3]
  solubility: < 20 µM
SH-SY5Y cells [4]; MTT, cytotoxicity
  IC50: > 250 µM
HepG2 cells; [10]
  IC50: > 250 µM
[5]
  Reaction with H2O2: did not show any significant reaction
SH-SY5Y cells [9]
  Neuroprotection effect, cell viability (MTT): high variable neuroprotection results at concentrations higher than 10 µM

## CN1C(=O)CC(c2ccccc2)=Nc2cc(F)c(F)cc21 [Compound 10, 7,8-Difluoro-1-methyl-4-phenyl-1H-1,5-benzodiazepin-2(3H)-one]
[1]
  IC50: > 1000 µM
[2]
  FRAP Assay Trolox Equivalents: 0.01
  FRAP Assay Antioxidant Capacity (%) at 100 uM: 0.3%
  FRAP Assay Antioxidant Capacity (%) at 200 uM: 0.6%
[3]
  solubility: > 200 µM
SH-SY5Y cells [4]; MTT, cytotoxicity
  IC50: 193 ± 15.9 µM
HepG2 cells; [10]
  IC50: > 250 µM
other
  melting point: 115.8 °C

## COc1cc(C2=Nc3cc(F)c(F)cc3NC(=O)C2)cc(OC)c1OC [Compound 22, 7,8-Difluoro-4-(3,4,5-trimethoxyphenyl)-1H-1,5-benzodiazepin-2(3H)-one]
[1]
  IC50: > 500 µM
[2]
  FRAP Assay Trolox Equivalents: 0.30
  FRAP Assay Antioxidant Capacity (%) at 100 uM: 15.7%
  FRAP Assay Antioxidant Capacity (%) at 200 uM: 13.7%
[3]
  solubility: < 100 µM
SH-SY5Y cells [4]; MTT, cytotoxicity
  IC50: > 250 µM
HepG2 cells; [10]
  IC50: > 250 µM
other
  melting point: 241.8 °C

Reference: article PMC8533176, “1,5-Benzodiazepin-2(3H)-ones: In Vitro Evaluation as Antiparkinsonian Agents” (Antioxidants, 2021)
